Assay results taken from US8614246B2, “Indole derivatives for treating neurodegenerative diseases” (Centre National de la Recherche Scientifique (CNRS), priority 2009, dated 2013).

Tests used:
[1] = Study of the passage through the blood-brain barrier (HPLC-MS/MS of brain extracts); type: in vivo, mice; conditions: for average concentration of compound 2c in brain extracts: 5-day sub-chronic, ± SEM, n=8
Procedure: The purpose of this study is to use HPLC coupled with a mass spectrometer to verify the presence of molecule 2c according to the invention […] hydrochloride of molecule 2c (2c/HCl) by oral or intra-peritoneal (IP)pathway.
Animals: Male RjOrl: SWISS mice approximately 5 weeks old and weighing between 20 and 24 g on arrival (from the R Janvier Breeding Centre, France) are kept in the animal house at constant temperature (22±1° C.) and under controlled hygrometry (55±20%) with a 12 hours light/darkness cycle (8 h00-20 h00). The mice were allowed free access to food and drink during the acclimatisation and study period. All experiments took place in accordance with the conditions defined in decree No. 2001-464, May 29, 2001 dealing with experiments on animals.
Treatments: Two 5-day sub-chronic treatments were done (oral or intra-peritoneal pathway): • Treatment by Intra-Peritoneal Pathway (IP):
The solution of hydrochloride of 2c/HCl to be injected is prepared in the carrier (10% Tween20+20% DMSO+70% NaCl at 09% in water) at a concentration of 2.0 g/L. Three groups were formed: • (1) mice that received the carrier through the IP pathway, at 10 mL/kg (group N, n=4), • (2) mice treated with 2c/HCl by IP pathway, at 20 mg/kg and at 10 mL/kg (group R, n=6), and • (3) Control mice that received no treatment (n=2).
The treated mice R4, R5 and R6 and the carrier mice N1, N2, N3 and N4 received the following treatments:
The solution of hydrochloride of 2c to be administered is prepared in the carrier (0.5% Tween80+99.5% carboxy-methyl cellulose at 1%, in 0.9% NaCl in water) at a concentration of 15.0 g/L.
(2) mice treated with 2c/HCl by oral pathway at 150 mg/kg and at 10 mL/kg (Group B, n=6), and
All mice were treated twice per day for 4 days. On the 5th day, they received a final treatment and were euthanized between 3 h00 and 7 h30 after this last treatment, according to the following scheme:
Euthanasia: The mice are anaesthetised by the injection of 0.1 mL of a solution of sodium pentobarbital at 6% and an perfusion is then done on the mice so as to remove all traces of blood from the brain, with an 0.9% NaCl solution that contains heparin (200 μL of heparin choay at 5000 UI/mL in 1 liter of 0.9% NaCl). An perfusion with a minimum of 50 mL of this solution is done on each animal. The mouse brain is removed. The cerebellum, the brain stem and olfactory bulbs are eliminated.
The 3 parts of the brain are frozen in isopentane at −30° C. for one minute, and then kept separately at −80° C. […]
However, only parts 1 of the mice brains were extracted and analysed so as to keep samples for future analyses. […]
Instrumentation and conditions for analysis of compound 2c: Detection and quantification based on the area of the peaks are done using HPLC-MS/MS, in MRM mode. […]

[2] = test system: dopaminergic neurons (TH+ neurons) in primary cultures of ventral mesencephalon; experiment: Neuroprotection: counting of remaining TH+ neurons in primary cultures of ventral mesencephalon (spontaneous death of dopaminergic neurons); type: cell-based; conditions: Product 10 nM, 8 days culture, rat embryo ventral mesencephalon; untreated control = 100
Procedure: Dissection. Dissection consists of extracting embryos from the uterus of a rat after fifteen days of gestation. The brain of each embryo is then dissected under magnifying binoculars in order to extract the ventral mesencephalus.
Seeding. Mesencephalons are grouped in a flask containing 2 mL of L15 medium and then mechanically dissociated (30 repeat operations), 5 mL of L15 medium are added. The suspension is allowed to stand for 8 minutes. The 5 mL float is then recovered in a new flask and the cells are dissociated again (30 repeat operations). 5 mL of L15 is added again and the suspension is left to stand for 8 minutes. The 5 mL float is added to the previous float. The cells thus extracted are then centrifuged for 5 minutes at 1000 rpm^−1. The cell sediment is dissolved in a Neurobasal medium supplemented with 1% of B27, 1% of glutamine and 1% of a mixture of penicillin and streptomycin. The cells are then seeded at an appropriate dilution (0.6 embryos per well in 24-well plates and 0.4 per well in 48-well plates). The cultures are incubated at 37° C. in a wet atmosphere enriched with 5% CO2 in 24-well or 48-well plates.
Treatment. After 24 hours, two-thirds of the medium in each well is replaced by a new medium enriched with the product to be tested at the appropriate dilution. The medium is replaced in the same way after 4 days of culture.
Immunohistochemistry. After 8 days culture, the cells are fixed by a solution of 4% formaldehyde and then washed three times with PBS. The cells are then submitted to anti-tyrosine hydroxylase (TH) immunohistochemistry, developed by a secondary antibody coupled to a fluorophore emitting in the red (Cy3).
Analyses. Neuroprotection is evaluated by counting positive TH neurons with 10 fields per well directly under an inverted fluorescence microscope, reported as a percentage of the untreated control. Experiments are done on three wells per condition. Three independent experiments are done under these conditions. The total neuritic length per cell is calculated using Explora Nova's Neurite Outgrowth software on 60 to 100 neurons photographed independently per condition.
Primary cultures of ventral mesencephalon of rat embryos after 15.5 days of gestation under conditions causing spontaneous death of dopaminergic neurons, are maintained in the presence or absence of the compounds to be tested for 8 days. After fixing, the cultures are submitted to immunocytochemistry directed against tyrosine hydroxylase, a specific marker of dopaminergic neurons.
The neuroprotective potential of each compound is then estimated by counting the number of remaining neurons (TH^+ neurons) under a fluorescence microscope. The results for the different treatments are expressed as a percentage of the number of neurons remaining relative to untreated cultures (Control).
All experiments were done by comparison with a positive control, dibutyryl-AMP cyclic (db-AMPc) (Mourlevat S. et al. Mol. Pharmacol. 2003, 64 (3), 578-586).

## CCCCCCCCCCCCCCCCNCCc1c[nH]c2ccccc12 [Compound 2c, N-(2-(1H-indol-3-yl)ethyl)hexadecan-1-amine]
[1]; mice, IP, 2c/HCl 20 mg/kg
  average concentration of compound 2c in brain extracts: 14.73 ng/mL
[1]; mice, after IP and after per os administration of 2c/HCl
  crossing of the BBB in vivo: capable of crossing the BBB in vivo
[1]; mice, per os, 2c/HCl 150 mg/kg twice per day (300 mg/kg/d)
  average concentration of compound 2c in brain extracts: 21.25 ng/mL
[1]; per os 300 mg/kg/d vs IP 20 mg/kg/d
  brain concentration after per os treatment relative to IP treatment: about 1.5 times
[2]
  TH+ neurons, % relative to control ± SEM: 131.9 ± 4.7 %
